In the CheMixHub viscosity set:

Test: xn = mol fraction of the nth substance listed

BrCCBr + C1CCCCC1
101.33 kPa
Details	viscosity [mPa·s]
298.15 K, x1 = 0.1283	0.8597
298.15 K, x1 = 0.2453	0.8556
298.15 K, x1 = 0.3514	0.926
298.15 K, x1 = 0.4599	0.9659
298.15 K, x1 = 0.5537	1.009
298.15 K, x1 = 0.6465	1.105
298.15 K, x1 = 0.7406	1.208
298.15 K, x1 = 0.8327	1.311
298.15 K, x1 = 0.91	1.45
308.15 K, x1 = 0.1562	0.7122
308.15 K, x1 = 0.2398	0.7673
308.15 K, x1 = 0.3629	0.8116
308.15 K, x1 = 0.4545	0.8447
308.15 K, x1 = 0.5559	0.9064
308.15 K, x1 = 0.6741	1.021
308.15 K, x1 = 0.7424	1.055
308.15 K, x1 = 0.8334	1.145
308.15 K, x1 = 0.9281	1.286

C1COCCO1 + C1CCCCC1
viscosity [mPa·s], 101 kPa
Details	298.15 K	303.15 K	308.15 K	313.15 K	318.15 K
x1 = 0.1001	–	0.793	–	–	–
x1 = 0.2073	–	0.783	–	–	–
x1 = 0.3007	–	0.785	–	–	–
x1 = 0.4018	–	0.787	–	–	–
x1 = 0.5018	–	0.815	–	–	–
x1 = 0.5983	–	0.841	–	–	–
x1 = 0.6997	–	0.882	–	–	–
x1 = 0.7992	–	0.934	–	–	–
x1 = 0.8901	–	1	–	–	–
x2 = 0.0864	1.083	1.009	0.936	0.869	0.808
x2 = 0.2096	0.992	0.917	0.851	0.792	0.738
x2 = 0.286	0.943	0.876	0.813	0.756	0.702
x2 = 0.391	0.887	0.82	0.763	0.709	0.661
x2 = 0.535	0.848	0.785	0.73	0.676	0.632
x2 = 0.6125	0.831	0.772	0.715	0.665	0.621
x2 = 0.685	0.821	0.766	0.711	0.66	0.617
x2 = 0.773	0.824	0.763	0.708	0.66	0.614
x2 = 0.8223	0.828	0.768	0.714	0.663	0.617
x2 = 0.9303	0.847	0.781	0.724	0.673	0.627

Brc1ccccc1 + C1CCOC1
viscosity [mPa·s], 101 kPa
Details	x2 = 0.1051	x2 = 0.2012	x2 = 0.3022	x2 = 0.4031	x2 = 0.4987
298.15 K	1.014	0.9619	0.9067	0.8488	0.7916
313.15 K	0.8409	0.8	0.7551	0.7079	0.6622

CCC(C)Cl (stereo not drawn) + C1CCOC1
298.15 K, 101 kPa
Details	viscosity [mPa·s]
x2 = 0.0544	0.3967
x2 = 0.111	0.3999
x2 = 0.2078	0.4057
x2 = 0.2947	0.411
x2 = 0.3996	0.4176
x2 = 0.5075	0.4246
x2 = 0.6041	0.4313
x2 = 0.7055	0.4387
x2 = 0.8076	0.4469
x2 = 0.9065	0.4551
x2 = 0.9544	0.4592

Brc1ccccc1 + C1CCOCC1
viscosity [mPa·s], 101 kPa
Details	x2 = 0.097	x2 = 0.1996	x2 = 0.3053	x2 = 0.4011	x2 = 0.5073
298.15 K	1.05	1.037	1.021	1	0.9753
313.15 K	0.8682	0.8547	0.8377	0.8212	0.7989

Brc1ccccc1 + C1COCCO1
303.15 K, 101 kPa
Details	viscosity [mPa·s]
x1 = 0.083	1.075
x1 = 0.17	1.078
x1 = 0.259	1.122
x1 = 0.352	1.131
x1 = 0.449	1.125
x1 = 0.55	1.115
x1 = 0.655	1.108
x1 = 0.766	1.079
x1 = 0.88	1.034

COc1ccccc1O + C1COCCO1
308.15 K, 101 kPa
Details	viscosity [mPa·s]
x2 = 0.1	4.29
x2 = 0.2	4.18
x2 = 0.3	3.795
x2 = 0.4	3.347
x2 = 0.5	2.73
x2 = 0.6	2.231
x2 = 0.7	1.834
x2 = 0.8	1.453
x2 = 0.9	1.172

C1=C[C@H]2[C@@H](C1)[C@H]1C=C[C@@H]2C1 + CC1CCCCC1
viscosity [mPa·s], 101.2 kPa
Details	x1 = 0.0987	x1 = 0.2012	x1 = 0.3023	x1 = 0.4007	x1 = 0.5024	x1 = 0.6001	x1 = 0.6994	x1 = 0.8017	x1 = 0.9021
293.15 K	0.8197	0.9187	1.043	1.198	1.398	1.646	2.032	2.607	3.386
298.15 K	0.7605	0.8517	0.9677	1.1	1.28	1.504	1.855	2.367	3.029
303.15 K	0.7145	0.791	0.8907	1.011	1.178	1.387	1.693	2.156	2.723
308.15 K	0.6717	0.7439	0.8387	0.9497	1.109	1.306	1.586	1.993	2.477
313.15 K	0.6316	0.7051	0.7996	0.9101	1.05	1.226	1.473	1.819	2.259
318.15 K	0.5952	0.6697	0.7496	0.8519	0.9802	1.138	1.359	1.668	2.059

C1COCCO1 + CC#N
viscosity [mPa·s], 101 kPa
Details	x2 = 0.1926	x2 = 0.3492	x2 = 0.4791	x2 = 0.5886	x2 = 0.6822	x2 = 0.763	x2 = 0.8336	x2 = 0.8957	x2 = 0.9508
298.15 K	0.9468	0.772	0.6349	0.5315	0.4573	0.4099	0.3679	0.3482	0.3389
308.15 K	0.8244	0.6862	0.5802	0.503	0.4477	0.4079	0.3775	0.3531	0.334
318.15 K	0.7189	0.5994	0.5014	0.4305	0.3854	0.3542	0.3354	0.3194	0.3076

O=C1CCCO1 + CC#N
Details	viscosity [mPa·s]
293.15 K, 101 kPa, x2 = 0.1054	1.604
293.15 K, 101 kPa, x2 = 0.1934	1.392
293.15 K, 101 kPa, x2 = 0.3007	1.172
293.15 K, 101 kPa, x2 = 0.4029	0.998
293.15 K, 101 kPa, x2 = 0.5036	0.849
293.15 K, 101 kPa, x2 = 0.6012	0.732
293.15 K, 101 kPa, x2 = 0.702	0.608
293.15 K, 101 kPa, x2 = 0.8008	0.518
293.15 K, 101 kPa, x2 = 0.8993	0.433
298.15 K, 101 kPa, x2 = 0.1054	1.484
298.15 K, 101 kPa, x2 = 0.1934	1.292
298.15 K, 101 kPa, x2 = 0.3007	1.092
298.15 K, 101 kPa, x2 = 0.4029	0.934
298.15 K, 101 kPa, x2 = 0.5036	0.8
298.15 K, 101 kPa, x2 = 0.6012	0.691
298.15 K, 101 kPa, x2 = 0.702	0.576
298.15 K, 101 kPa, x2 = 0.8008	0.495
298.15 K, 101 kPa, x2 = 0.8993	0.414
298.15 K, 101.33 kPa, x2 = 0.0503	1.591
298.15 K, 101.33 kPa, x2 = 0.0938	1.471
298.15 K, 101.33 kPa, x2 = 0.1387	1.375
298.15 K, 101.33 kPa, x2 = 0.2001	1.253
298.15 K, 101.33 kPa, x2 = 0.249	1.164
298.15 K, 101.33 kPa, x2 = 0.3005	1.074
298.15 K, 101.33 kPa, x2 = 0.3969	0.925
298.15 K, 101.33 kPa, x2 = 0.4459	0.86
298.15 K, 101.33 kPa, x2 = 0.4998	0.79
298.15 K, 101.33 kPa, x2 = 0.5515	0.728
298.15 K, 101.33 kPa, x2 = 0.5979	0.676
298.15 K, 101.33 kPa, x2 = 0.7014	0.571
298.15 K, 101.33 kPa, x2 = 0.7522	0.525
298.15 K, 101.33 kPa, x2 = 0.8006	0.485
298.15 K, 101.33 kPa, x2 = 0.8359	0.456
298.15 K, 101.33 kPa, x2 = 0.8994	0.409
298.15 K, 101.33 kPa, x2 = 0.9532	0.365
303.15 K, 101 kPa, x2 = 0.1054	1.378
303.15 K, 101 kPa, x2 = 0.1934	1.204
303.15 K, 101 kPa, x2 = 0.3007	1.021
303.15 K, 101 kPa, x2 = 0.4029	0.877
303.15 K, 101 kPa, x2 = 0.5036	0.756
303.15 K, 101 kPa, x2 = 0.6012	0.655
303.15 K, 101 kPa, x2 = 0.702	0.547
303.15 K, 101 kPa, x2 = 0.8008	0.473
303.15 K, 101 kPa, x2 = 0.8993	0.395
308.15 K, 101 kPa, x2 = 0.1054	1.284
308.15 K, 101 kPa, x2 = 0.1934	1.126
308.15 K, 101 kPa, x2 = 0.3007	0.958
308.15 K, 101 kPa, x2 = 0.4029	0.827
308.15 K, 101 kPa, x2 = 0.5036	0.716
308.15 K, 101 kPa, x2 = 0.6012	0.621
308.15 K, 101 kPa, x2 = 0.702	0.52
308.15 K, 101 kPa, x2 = 0.8008	0.452
308.15 K, 101 kPa, x2 = 0.8993	0.378
313.15 K, 101 kPa, x2 = 0.1054	1.201
313.15 K, 101 kPa, x2 = 0.1934	1.055
313.15 K, 101 kPa, x2 = 0.3007	0.902
313.15 K, 101 kPa, x2 = 0.4029	0.781
313.15 K, 101 kPa, x2 = 0.5036	0.68
313.15 K, 101 kPa, x2 = 0.6012	0.591
313.15 K, 101 kPa, x2 = 0.702	0.496
313.15 K, 101 kPa, x2 = 0.8008	0.431
313.15 K, 101 kPa, x2 = 0.8993	0.363
318.15 K, 101 kPa, x2 = 0.1054	1.125
318.15 K, 101 kPa, x2 = 0.1934	0.991
318.15 K, 101 kPa, x2 = 0.3007	0.85
318.15 K, 101 kPa, x2 = 0.4029	0.74
318.15 K, 101 kPa, x2 = 0.5036	0.647
318.15 K, 101 kPa, x2 = 0.6012	0.563
318.15 K, 101 kPa, x2 = 0.702	0.473
318.15 K, 101 kPa, x2 = 0.8008	0.413
318.15 K, 101 kPa, x2 = 0.8993	0.344
323.15 K, 101 kPa, x2 = 0.1054	1.058
323.15 K, 101 kPa, x2 = 0.1934	0.934
323.15 K, 101 kPa, x2 = 0.3007	0.803
323.15 K, 101 kPa, x2 = 0.4029	0.702
323.15 K, 101 kPa, x2 = 0.5036	0.617
323.15 K, 101 kPa, x2 = 0.6012	0.538
323.15 K, 101 kPa, x2 = 0.702	0.452
323.15 K, 101 kPa, x2 = 0.8008	0.396
323.15 K, 101 kPa, x2 = 0.8993	0.33

C[N+](C)(C)CC(=O)[O-] + CC(=O)CCC(=O)O
viscosity [mPa·s]
Details	298.15 K	303.15 K	308.15 K	313.15 K	318.15 K	323.15 K
100 kPa, x2 = 0.667	1342	857.3	572.3	393.6	268.9	194.2
101 kPa, x2 = 0.7	–	838	–	–	–	221
101 kPa, x2 = 0.9	117.7	–	–	–	–	–

N#C[S-].[NH4+] + CC(=O)[O-].CC[n+]1ccn(C)c1
viscosity [mPa·s], 101 kPa
Details	x1 = 0.02	x1 = 0.1002	x1 = 0.1998	x1 = 0.2514	x1 = 0.3001	x1 = 0.3199	x1 = 0.3413
298.15 K	136.6	160.2	190.7	198.6	194.6	195.4	196.4
303.15 K	100.9	117.6	139.3	144.4	141.9	142.8	143.6
308.15 K	76.44	88.53	104	107.4	105.9	106.6	107.3
313.15 K	59.28	68.07	79.27	81.46	80.5	81.14	81.73
318.15 K	46.92	53.32	61.47	62.88	62.26	62.81	63.32
323.15 K	37.79	42.45	48.4	49.28	48.89	49.35	49.79
